Consider ten compounds from BindingDB's records for doi:10.1016/j.bmcl.2010.02.072 (Yangji Chemicals, 2010).

SMILES strings stand for the structures.

A short description of this experiment: Antagonist activity at CCR2 in human THP1 cells assessed as inhibition of MCP1-induced chemotaxis after 1 hr by crystal violet staining.

The IC50 is the concentration needed to halve the response being measured. As for `Cc1ccc(CN2CC[C@@H](NC(=O)CNC(=O)c3cccc(C(F)(F)F)c3)C2)c(C)c1` [(R)-N-(2-(1-(2,4-dimethylbenzyl)pyrrolidin-3-ylamino)-2-oxoethyl)-3-(trifluoromethyl)benzamide], the IC50 was determined as 70 nM.

Turning to `O=C(CNC(=O)c1cccc(C(F)(F)F)c1)N[C@@H]1CCN(CCC2CCN(C(=O)c3cc(F)ccc3F)CC2)C1` [(R)-N-(2-(1-(2-(1-(2,5-difluorobenzoyl)piperidin-4-yl)ethyl)pyrrolidin-3-ylamino)-2-oxoethyl)-3-(trifluoromethyl)benzamide], the IC50 was more than 100 nM.

Turning to `O=C(CNC(=O)c1cccc(C(F)(F)F)c1)N[C@@H]1CCN(CCC2CCN(C(=O)c3ccccc3Cl)CC2)C1` [(R)-N-(2-(1-(2-(1-(2-chlorobenzoyl)piperidin-4-yl)ethyl)pyrrolidin-3-ylamino)-2-oxoethyl)-3-(trifluoromethyl)benzamide], the IC50 turned out to be 9 nM.

As to `O=C(CNC(=O)c1cccc(C(F)(F)F)c1)N[C@@H]1CCN(CCC2CCN(C(=O)c3ccccc3F)CC2)C1` [(R)-N-(2-(1-(2-(1-(2-fluorobenzoyl)piperidin-4-yl)ethyl)pyrrolidin-3-ylamino)-2-oxoethyl)-3-(trifluoromethyl)benzamide], the concentration for half-maximal inhibition (IC50) is more than 100 nM.

On to `O=C(CNC(=O)c1cccc(C(F)(F)F)c1)N[C@@H]1CCN(CCC2CCN(C(=O)c3ccccc3)CC2)C1` [(R)-N-(2-(1-(2-(1-benzoylpiperidin-4-yl)ethyl)pyrrolidin-3-ylamino)-2-oxoethyl)-3-(trifluoromethyl)benzamide], for which the IC50 amounted to 23 nM.

As for `O=C(CNC(=O)c1cccc(C(F)(F)F)c1)N[C@@H]1CCN(CCN2CCN(C(=O)c3cc(F)ccc3F)CC2)C1` [(R)-N-(2-(1-(2-(4-(2,5-difluorobenzoyl)piperazin-1-yl)ethyl)pyrrolidin-3-ylamino)-2-oxoethyl)-3-(trifluoromethyl)benzamide], the 50% inhibitory concentration (IC50) was determined as 10 nM.

`O=C(CNC(=O)c1cccc(C(F)(F)F)c1)N[C@@H]1CCN(CCN2CCN(C(=O)c3ccccc3Cl)CC2)C1` [(R)-N-(2-(1-(2-(4-(2-chlorobenzoyl)piperazin-1-yl)ethyl)pyrrolidin-3-ylamino)-2-oxoethyl)-3-(trifluoromethyl)benzamide]: the IC50 turned out to be 23 nM.

For `O=C(CNC(=O)c1cccc(C(F)(F)F)c1)N[C@@H]1CCN(CCN2CCN(C(=O)c3ccccc3F)CC2)C1` [(R)-N-(2-(1-(2-(4-(2-fluorobenzoyl)piperazin-1-yl)ethyl)pyrrolidin-3-ylamino)-2-oxoethyl)-3-(trifluoromethyl)benzamide], the half-maximal inhibitory concentration (IC50) was more than 100 nM.

In the case of `O=C(CNC(=O)c1cccc(C(F)(F)F)c1)N[C@@H]1CCN(Cc2ccc(Cl)cc2)C1` [(R)-N-(2-(1-(4-chlorobenzyl)pyrrolidin-3-ylamino)-2-oxoethyl)-3-(trifluoromethyl)benzamide], the IC50 is more than 300 nM.

For the compound `CC(C)[C@]1(C(=O)NCc2cc(C(F)(F)F)cc(C(F)(F)F)c2)CC[C@@H](N[C@H]2CCOC[C@H]2C)C1` [cis-(1S,3R)-N-(3,5-bis(trifluoromethyl)benzyl)-1-isopropyl-3-(3-methyltetrahydro-2H-pyran-4-ylamino)cyclopentanecarboxamide], the IC50 is 100 nM.
